According to patent US5512549A, “Glucagon-like insulinotropic peptide analogs, compositions, and methods of use” (Eli Lilly and Company, priority 1994, dated 1996):

Key:
[1] = tested on: Sprague Dawley rats; experiment: Rat I.V. Hyperglycemic (150 mg/dl) Clamp Test; assay type: in vivo; conditions: for Insulin Change AUC: 0-15 min; for GIR Change AUC: 0-30 min; for Max Insulin Change: 90 minute test period; for Duration of Insulin Effect: time average insulin change >0 ng/ml
Experimental: b) Hyperglycemic Clamp Studies
Experiments were conducted in chronically catheterized, normal, male Sprague Dawley rats weighing about 350 grams. At least a week prior to studies, surgery was performed on the rats under isoflurane anesthesia. Two catheters were implanted into the jugular vein for infusions of glucose and peptide and one catheter into the carotid artery for blood sampling. The catheters were exteriorized through the skin at the vertex of the head, filled with glycerol/heparin solution (3:1,v/v) and closed off with a one centimeter stainless steel plug. Animals were housed individually in wire mesh cages and allowed free access to standard rat chow diet and water.
Catheterized rats were fasted overnight prior to studies. On the morning of the experiment, rats were weighed and sampling tubings connected to their indwelling catheters. The tubings were enclosed in a light weight stainless steel spring for protection. During the study, rats were kept unrestrained in a plastic shoe box cage (12"×10"×12") with about one inch of bedding. After 15 minutes of acclimation, a basal sample was taken for measurement of insulin and glucose levels. At time -60 minutes, rats were given a bolus of 20% dextrose to raise plasma glucose to 150 mg/dl. The plasma glucose concentration was maintained at this level for the duration of the study by measuring the plasma glucose concentration every five minutes and adjusting the calibrated variable infusion pump accordingly. Blood samples were collected at -15 and 0 minutes for baseline measurements. Immediately after taking the zero minute sample, peptide (130-155 μM stock concentration, diluted in phosphate buffered saline) was injected via the jugular vein catheter and flushed with saline. Blood samples were taken for glucose and insulin determinations at 2, 4, 6, 8, 10, 12, 15, 20, 25, 30, 40, 50, 60, 70, 80, and 90 minutes. All blood samples were collected into syringes coated with sodium heparin, transferred into micro centrifuge tubes and placed on ice. Blood samples were then centrifuged in a micro centrifuge to separate the plasma component.
Plasma glucose levels were determined on the day of the study by the glucose oxidase method using the Beckman Glucose Analyzer 2, while the insulin concentrations were measured by a commercial kit (Diagnostic Products Corporation) with rat insulin standard.
Insulin change (the change in insulin from the baseline value) was calculated as the difference between the insulin concentration at time t and the average insulin concentration prior to injection of test substance. The area under the insulin change curve was calculated using the trapezoidal rule. Glucose infusion rate change (the percent change in the glucose infusion rate from the baseline value) was calculated as the difference between the glucose infusion rate value at time t and the average glucose infusion rate prior to injection of test substance, divided by the average glucose infusion rate prior to injection of test substance, times 100. The area under the glucose infusion rate change curve was calculated on the absolute glucose infusion rate change values (calculated as the difference between the glucose infusion rate value at time t and the glucose infusion rate prior to injection of test substance) using the trapezoidal rule. Values are listed as the mean ± the standard error of the mean (SEM).

[2] = tested on: beagles; experiment: Dog S.C. Hyperglycemic (150 mg/dl) Clamp Test; assay type: in vivo; conditions: S.C. 10 μg/kg; for GIR Change AUC / Insulin Change AUC: 0-120 min; for GIR Change AUC / Insulin Change AUC / Max Insulin Change: mean ± SEM; for Max Insulin Change: 120 minute test period; for Duration of Insulin Effect: time average insulin change consistently >0.5 ng/ml
Experimental: a) Hyperglycemic Clamp Studies
Experiments were conducted in overnight-fasted, conscious, adult (1-2 years of age) male and female beagles weighing 8-15 kg. At least ten days prior to the study, animals were anesthetized with isoflurane, and a cut-down was made in the left or right inguinal region. Silastic catheters were inserted into the femoral artery and the proximal caudal femoral vein and secured with 4-0 silk suture. The free ends of the catheters were passed subcutaneously to the back using a trocar needle. The catheters were then filled with a glycerol/heparin solution (3:1, v/v; final heparin concentration of 250 KIU/ml), and the free ends were knotted and placed in a subcutaneous pocket to allow complete closure of the skin. Keflex® was administered both pre-operatively (20 mg/kg, IV and 20 mg/kg, I.M.) and post-operatively (250 mg, p.o. once daily for seven days) to prevent infections. Torbugesic (1.5 mg/kg, I.M.) was administered post-operativelyto control pain.
Blood was drawn just prior to the study day to determine the health of the animal. Only animals with hematocrits above 38% and leukocyte counts below 16,000/mm^3 were used.
The afternoon before the experiment, the free ends of the catheters were exteriorized from the subcutaneous pocket through a small incision made under local anesthesia (2% lidocaine), and the dog was fitted with a tether system jacket and collar assembly.
The morning of the experiment, the contents of the catheters were aspirated, the catheters were flushed with saline, and extension lines (protected by a stainless steel tether) were attached to the catheters. On mornings of IV injection experiments, an over-the-needle, teflon catheter was inserted percutaneously into a cephalic vein in preparation for the administration of an IV bolus of test substance. The dog was placed in a metabolic cage, and the catheter extension lines and tether were attached to a swivel system to allow the dog to move freely about the cage. At this time (-60 minutes), an exogenous infusion of glucose (50% w/v in water) was begun through the chronic venous catheter. Glucose was infused in a descending stepwise fashion over the first six minutes of the study to rapidly raise the plasma glucose concentration to 150 mg/dl. Plasma glucose concentrations were determined every 2.5 to 7.5 minutes throughout the remainder of the study, and the glucose infusion rate was adjusted appropriately to maintain the plasma glucose concentration at 150 mg/dl.
Sixty minutes after the start of the glucose infusion (time 0), test substance was administered either intravenously (1.0, 2.9, 5.0 or 10.0 μg/kg; dose dissolved in 2 ml of saline containing 0.3% dog albumin, w/v) through the previously inserted teflon catheter or subcutaneously (10 μg/kg; 150 μM in phosphate buffered saline) in the dorsal aspect of the neck.
Arterial blood samples (3.5 ml) were taken at -30, -15, 0, 2.5, 5, 7.5, 10, 12.5, 15, 20, 30, 45, 60, 75, 90, 105 and 120 minutes during the IV studies and at -30, -15, 0, 3, 6, 9, 12, 15, 20, 30, 45, 60, 75, 90, 105 and 120 minutes during the SC studies. Samples were collected in vacuum blood collection tubes containing disodium EDTA and immediately placed on ice. To prevent proteolytic cleavage of GLP-1(7-37) in the plasma samples, 1.5 ml of the EDTA containing blood were transferred to a polypropylene tube containing 40 μl of aprotinin (10,000 KIU/ml) and mixed well. The samples were centrifuged, and the resulting plasma was transferred to polypropylene test tubes and stored on ice for the duration of the study.
At the conclusion of the experiment, the animal was anesthetized (isoflurane); the catheters were flushed with fresh saline and filled with the glycerol/heparin mixture; the free ends of the catheters were knotted and placed subcutaneously as described earlier; and antibiotic was administered (300 mg Keflex®, I.M.). […]

Substance: Lys^34 -N^ε -octanoyl-GLP-1(7-37)OH [Lys^34-N^ε-octanoyl-GLP-1(7-37)OH]
- Insulin Change AUC ([1]; I.V. 1.0 μg/kg): 13.2 ng·min/mL
- GIR Change AUC ([1]; I.V. 1.0 μg/kg): 132 mg/kg
- Max Insulin Change ([1]; I.V. 1.0 μg/kg): 2.4 ± 0.8 ng/mL
- Duration of Insulin Effect ([1]; I.V. 1.0 μg/kg): 4 min
- GIR Change AUC [2]: 532 ± 112 mg/kg
- Insulin Change AUC [2]: 29 ± 8 ng·min/mL
- Max Insulin Change [2]: 0.6 ± 0.3 ng/mL
- Duration of Insulin Effect [2]: not active

Substance: GLP-1(7-37)OH
- Insulin Change AUC ([1]; I.V. 0.05 μg/kg): 3.0 ± 1.6 ng·min/mL
- GIR Change AUC ([1]; I.V. 0.05 μg/kg): 48 ± 22 mg/kg
- Max Insulin Change ([1]; I.V. 0.05 μg/kg): 1.6 ± 0.3 ng/mL
- Duration of Insulin Effect ([1]; I.V. 0.05 μg/kg): 6 min
- Insulin Change AUC ([1]; I.V. 0.1 μg/kg): 7.3 ± 2.8 ng·min/mL
- GIR Change AUC ([1]; I.V. 0.1 μg/kg): 150 mg/kg
- Max Insulin Change ([1]; I.V. 0.1 μg/kg): 3.6 ± 1.2 ng/mL
- Duration of Insulin Effect ([1]; I.V. 0.1 μg/kg): 6 min
- Insulin Change AUC ([1]; I.V. 0.2 μg/kg): 5.8 ± 0.9 ng·min/mL
- GIR Change AUC ([1]; I.V. 0.2 μg/kg): 154 mg/kg
- Max Insulin Change ([1]; I.V. 0.2 μg/kg): 2.8 ± 0.1 ng/mL
- Duration of Insulin Effect ([1]; I.V. 0.2 μg/kg): 6 min
- Insulin Change AUC ([1]; I.V. 0.6 μg/kg): 14.9 ng·min/mL
- GIR Change AUC ([1]; I.V. 0.6 μg/kg): 151 mg/kg
- Max Insulin Change ([1]; I.V. 0.6 μg/kg): 4.9 ± 1.3 ng/mL
- Duration of Insulin Effect ([1]; I.V. 0.6 μg/kg): 6 min
- Insulin Change AUC ([1]; I.V. 1.0 μg/kg): 16.7 ng·min/mL
- GIR Change AUC ([1]; I.V. 1.0 μg/kg): 131 mg/kg
- Max Insulin Change ([1]; I.V. 1.0 μg/kg): 7.7 ± 0.8 ng/mL
- Duration of Insulin Effect ([1]; I.V. 1.0 μg/kg): 6 min
- Insulin Change AUC ([1]; I.V. 2.0 μg/kg): 11.5 ng·min/mL
- GIR Change AUC ([1]; I.V. 2.0 μg/kg): 152 mg/kg
- Max Insulin Change ([1]; I.V. 2.0 μg/kg): 3.6 ± 0.9 ng/mL
- Duration of Insulin Effect ([1]; I.V. 2.0 μg/kg): 6 min
- Insulin Change AUC ([1]; I.V. 4.0 μg/kg): 10.4 ng·min/mL
- GIR Change AUC ([1]; I.V. 4.0 μg/kg): 139 mg/kg
- Max Insulin Change ([1]; I.V. 4.0 μg/kg): 2.0 ± 0.4 ng/mL
- Duration of Insulin Effect ([1]; I.V. 4.0 μg/kg): 40 min
- GIR Change AUC [2]: 696 ± 145 mg/kg
- Insulin Change AUC [2]: 64 ± 33 ng·min/mL
- Max Insulin Change [2]: 1.6 ± 0.8 ng/mL
- Duration of Insulin Effect [2]: 27 min
